Laboratory results from PubChem BioAssay (NCI).
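Five compound concentrations were applied to cells in 96-well plates for 48 hours; endpoints were derived by simple linear interpolation of the resulting dose-response curve. Abbreviation: GI50, concentration required for 50% inhibition of growth. TGI marks complete inhibition of growth.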

How the values were obtained:
Assay in all cases: growth of human tumour cells (NCI), 48 h
[1] = test system: TK-10 renal
[2] = test system: HCC-2998 colon
[3] = test system: SF-539 CNS
[4] = test system: ACHN renal
[5] = test system: CAKI-1 renal
[6] = test system: MOLT-4 leukemia
[7] = test system: HL-60(TB) leukemia
[8] = test system: COLO 205 colon
[9] = test system: MDA-MB-435
[10] = test system: PC-3 prostate

Row | Compound | TGI [1] | TGI [2] | TGI [3] | TGI [4] | TGI [5] | TGI [6] | TGI [7] | TGI [8] | TGI [9] | TGI [10] | GI50 [1] | GI50 [2] | GI50 [9] | GI50 [3] | GI50 [4] | GI50 [5] | GI50 [10] | GI50 [8] | GI50 [6]
1 | CC(=O)OC1CCn2nnc(COC(=O)NC(C)C)c21 (centres undefined) | > 100 µM | > 100 µM | > 100 µM | > 100 µM | > 100 µM | > 100 µM | – | – | – | – | – | – | – | – | – | – | – | – | –
2 | Cc1ccc(NC(=O)/C(CC(=O)c2c[n+](=O)c3ccccc3n2O)=N\NC(=O)C[n+]2ccccc2)cc1 | > 100 µM | > 100 µM | > 100 µM | > 100 µM | > 100 µM | > 100 µM | > 100 µM | > 100 µM | – | – | – | – | – | – | – | – | – | – | –
3 | O=C(O)C1C2CC3C(OC(=O)C31)C2Br (centres undefined) | > 100 µM | – | > 100 µM | > 100 µM | > 100 µM | > 58.1 µM | > 23.4 µM | > 100 µM | > 100 µM | > 100 µM | – | – | – | – | – | – | – | – | –
4 | CC(c1ccc(Br)cc1)C(C(=O)O)C(=O)O (centres undefined) | > 100 µM | > 100 µM | – | > 100 µM | > 100 µM | > 100 µM | > 100 µM | > 100 µM | – | – | – | – | – | – | – | – | – | – | –
5 | CC(=O)N1CC2Nc3ccccc3C2CC1CO (centres undefined) | > 100 µM | > 100 µM | > 100 µM | > 100 µM | > 100 µM | > 100 µM | > 100 µM | > 100 µM | – | – | – | – | – | – | – | – | – | – | –
6 | O=C1/C(=C/c2ccccc2Cl)N=C(c2ccccc2)N1Cc1ccco1 | > 100 µM | > 100 µM | > 100 µM | > 100 µM | > 100 µM | > 100 µM | – | > 100 µM | 49.9 µM | > 100 µM | > 100 µM | 43.2 µM | 20.1 µM | 63.8 µM | > 100 µM | 94.3 µM | 39 µM | 51.4 µM | 13.3 µM
7 | N#Cc1ccccc1C#C/C=C\C#Cc1ccc(OCCCNC(=O)c2cc3ccccc3[nH]2)cc1 | 34 µM | > 100 µM | 35.6 µM | 34.9 µM | 48 µM | 23.4 µM | – | 44.6 µM | 42.7 µM | 45.2 µM | 15.7 µM | 74.9 µM | 19 µM | 15.4 µM | 16.9 µM | 20.2 µM | 14.7 µM | 15.9 µM | 5.23 µM
8 | COc1ccc2c(c1)CC[C@@H]1[C@@H]2CC[C@@]2(C)[C@H]1CC1(CCCCC1)[C@@H]2O | 31.8 µM | 28.5 µM | 16.6 µM | 28.2 µM | 33.9 µM | – | – | 26 µM | 33.8 µM | 21.7 µM | 12.2 µM | 14.1 µM | 16.5 µM | 4.22 µM | 14.7 µM | 18.2 µM | 7.93 µM | 7.35 µM | –
9 | COc1cc(/C=C/C(C)=O)ccc1OP(=O)(O)O | > 100 µM | > 100 µM | > 100 µM | > 100 µM | > 100 µM | > 100 µM | – | > 100 µM | > 100 µM | > 100 µM | – | – | – | – | – | – | – | – | –
10 | COc1ccc2c(c1)c(C1(c3cn(C)c4ccc(OC)cc34)C(=O)Nc3ccc(F)cc31)cn2C | – | > 100 µM | 85.2 µM | > 100 µM | 45.3 µM | 50.1 µM | – | 6.36 µM | > 100 µM | > 100 µM | – | 4.53 µM | 3.77 µM | 15.6 µM | 4.63 µM | 2.06 µM | 3.88 µM | 2.62 µM | 4.57 µM
11 | O=C(CCC(=O)Nc1ccc(Cl)cc1)CC(=O)c1ccc(F)cc1 | > 100 µM | > 100 µM | > 100 µM | > 100 µM | > 100 µM | > 100 µM | > 100 µM | > 100 µM | – | – | – | – | – | – | – | – | – | – | –
12 | CCN(CC)CCOc1ccc(/C=C2\CC3C4CCC5=CC(=O)CC[C@]5(C)C4CC[C@]3(C)C2=O)cc1OC (some centres undefined) | 5.59 µM | 5.18 µM | 6.13 µM | – | 6.54 µM | > 100 µM | – | 4.61 µM | 4 µM | 13.9 µM | 2.45 µM | 2.18 µM | 1.87 µM | 2.06 µM | 3.05 µM | 2.66 µM | 2.92 µM | 1.75 µM | 5.78 µM
13 | O=C1CCCC/C1=C/C=C/c1ccccc1 | > 100 µM | > 100 µM | > 100 µM | > 100 µM | > 100 µM | > 100 µM | 62.8 µM | > 100 µM | – | – | – | – | – | – | – | – | – | – | –
14 | O=c1[nH]c(Br)nc2c(Br)c[nH]c12 | > 100 µM | – | > 100 µM | > 100 µM | > 100 µM | > 100 µM | > 100 µM | > 100 µM | – | – | – | – | – | – | – | – | – | – | –
15 | O=c1ccccc2cccc(O)c12 | > 100 µM | > 100 µM | > 100 µM | > 100 µM | > 100 µM | > 100 µM | > 100 µM | > 100 µM | – | – | – | – | – | – | – | – | – | – | –
16 | COc1ccc2c3c1C(=O)CCC3CO2 (centres undefined) | > 100 µM | > 100 µM | > 100 µM | > 100 µM | > 100 µM | > 100 µM | > 100 µM | > 100 µM | – | – | – | – | – | – | – | – | – | – | –
17 | Brc1ccc([I+]c2ccc(Br)cc2)cc1 | 13.3 µM | 8.12 µM | 4.28 µM | 21 µM | 8.98 µM | – | – | 2.68 µM | 17 µM | 3.8 µM | 1.97 µM | 1.32 µM | 1.94 µM | 1.37 µM | 4.47 µM | 1.9 µM | 1.25 µM | 1.18 µM | –
18 | CC1=CC(C)(C)N=C2SC(c3ccc(Cl)cc3)=NN12 | > 100 µM | > 100 µM | > 100 µM | > 100 µM | > 100 µM | 51 µM | 32.5 µM | > 100 µM | – | – | – | – | – | – | – | – | – | – | –
19 | CN(C)CCn1c2ccccc2c2nc3cc4ccccc4cc3nc21 | 26.4 µM | 17.7 µM | – | 11.1 µM | 20 µM | 4.1 µM | 11.1 µM | 12.3 µM | – | – | – | – | – | – | – | – | – | – | –
20 | CCC[CH2][Sn]([CH2]CCC)([O]C(=O)c1cccc(F)c1)[O]C(=O)c1cccc(F)c1 | 2.58 µM | 2.81 µM | 2.31 µM | 2.59 µM | 1.43 µM | 2.41 µM | – | 2.18 µM | – | – | 1.29 µM | 1.47 µM | – | 1.1 µM | 1.3 µM | 0.369 µM | – | 0.852 µM | 0.363 µM
21 | O=C(O)/C(=C/c1ccccc1[N+](=O)[O-])c1ccccc1 | > 100 µM | > 100 µM | > 100 µM | > 100 µM | > 100 µM | > 100 µM | > 100 µM | > 100 µM | – | – | – | – | – | – | – | – | – | – | –
